This passage reports outcome results from PubChem BioAssay AID2202558 (NIEHS Division of Translational Toxicology (DTT)).

Results filed as inconclusive are left out. Activity calls are given as the source filed them. How the calls were made is not given here.

In this data set the test system is mouse/rat in vivo micronucleus assay, summary call. Put plainly: In vivo micronucleus assay summary data. The source says:
The erythrocyte micronucleus test examines the ability of substances to cause chromosome damage in developing red blood cells inside bone marrow. A micronucleus (literally, "little nucleus") is a biomarker of structural chromosome damage (e.g., breaks) and changes in chromosome number (e.g., chromosome loss). If a chromosome is broken or fails to migrate properly with other chromosomes during cell division, the broken piece or lost chromosome will form a small (micro) nucleus of its own in one of the two daughter cells produced. Detection of chromosomal damage is important because it has been linked to birth defects, infertility, and certain diseases, including cancer.
The micronucleus test is performed in rapidly dividing cell populations, and bone marrow is a site of rapid blood cell division. Both bone marrow and peripheral blood samples can be examined for the presence of micronuclei in red blood cells.
Animals are treated with a test substance once or daily over a period of time, and the frequency of micronucleated cells is determined 24-48 hours after the final treatment, depending on the source of the cells (bone marrow or blood) that are examined and the treatment regimen.
The test subjects are rodents (rats or mice) that are exposed to the test substance, usually by oral gavage or injection. Typically, one to three daily treatments of the test substance are administered over a range of doses; the highest dose tested is near the maximum tolerated dose. Groups of negative and positive control animals are included for each test. Bone marrow samples are obtained from all animals 24 hours after the last treatment, and red blood cells are examined for the presence of micronuclei.
B. Peripheral Blood Tests
Micronucleus tests are performed on male and female rodents that are exposed to the test substance orally, dermally, or by inhalation in subchronic (e.g., 28 or 90 days) or short term (e.g., 48-72 hours) toxicity studies. 24 to 48 hours after the final exposure, peripheral blood samples are obtained and red blood cells are examined for the presence of micronuclei. Samples may be examined using standard slide scoring procedures or automated flow cytometric approaches. Since 2007, NTP has routinely relied on flow cytometry to evaluate the frequency of micronucleated cells in peripheral blood.
Peripheral blood micronucleus assays are typically integrated into all NTP toxicity studies, and they also lend themselves to serial monitoring of micronucleus frequencies over time, since blood samples can be obtained without the need to sacrifice the animals.
Blood or bone marrow samples from treated animals are compared to samples from untreated animals. With the slide-based approach for data acquisition, 1000-2000 cells were scored per animal. Using flow cytometric procedures to evaluate blood samples, 20,000 immature red blood cells and around one million mature red blood cells are examined per animal, resulting in a marked increase in the ability to detect small changes in the frequency of micronucleated red blood cells. The data is analyzed using statistical methods to determine if there is a significant increase in the frequency of cells containing micronuclei. Both dose-related responses and the magnitude of response for each independent dose group are considered during the evaluation of the data. For a positive test, both a significant dose response (trend) and at least one significant dose group are required. If only one of these measures is present, the test is determined to be questionable. The absence of either condition results in a negative test. The final conclusions for micronucleus tests are determined by considering the results of statistical analyses, reproducibility of any observed effects, and the magnitude of the effects. Ultimately, both the biological significance as well as statistical significance is considered when reaching a final conclusion.
[…]
For the molecule `CCCOC(=O)c1cc(O)c(O)c(O)c1`, the outcome is “active; positive”.

For the molecule `OCc1c[nH]c2ccccc12`, the outcome was “inactive; negative”.

With `Nc1ccc(Oc2ccc(N)cc2)cc1`, the outcome was “active; positive”.

As for `O=NO`, the outcome was “inactive; negative”.

Take `O=S(=O)(O)C(F)(F)C(F)(F)C(F)(F)C(F)(F)C(F)(F)C(F)(F)C(F)(F)C(F)(F)F`: the outcome was active.

For the molecule `Cc1ccc(S(N)(=O)=O)cc1`, the outcome is “inactive; negative”.

Consider `CN(C)C(=O)Nc1ccc(Cl)cc1`, for which the outcome is “active; positive”.

Take `CCC(=O)C(C)=O`: the outcome was “inactive; negative”.

For `CC(=O)CC(C)=O`, the outcome is “active; positive”.

Take `Brc1c(Br)c(Br)c(Oc2c(Br)c(Br)c(Br)c(Br)c2Br)c(Br)c1Br`: the result was active.

Regarding `S=c1[nH]c2ccccc2s1`, the outcome was “inactive; negative”.

`Nc1ccc(Cl)cc1N`: the outcome was “active; positive”.

For the molecule `COc1ccc2nc(N)sc2c1`, the outcome was “active; positive”.

Take `CN(C)c1ccc(C(c2ccccc2)c2ccc(N(C)C)cc2)cc1`: the outcome was “active; positive”.

As to `C[C@H](Cn1cnc2c(N)ncnc21)OCP(=O)(O)O`, the outcome was “active; positive”.

With `O=C(O)CS`, the outcome was “active; positive”.

As for `COC(=O)C(c1ccccc1)C1CCCCN1` (centres undefined), the outcome was “inactive; negative”.

Regarding `Cc1c2ccccc2c(C)c2c1ccc1ccccc12`, the outcome was “active; positive”.

Take `CCCCn1cc[n+](C)c1`: the outcome was “inactive; negative”.

`NC(=O)c1ncn([C@@H]2O[C@H](CO)[C@@H](O)[C@H]2O)n1`: the outcome is “active; positive”.

Take `CCOC(N)=O`: the outcome is “active; positive”.

As for `CCN(N=O)C(N)=O`, the outcome was “active; positive”.

In the case of `COC(=O)c1ccccc1C(=O)OC`, the outcome is “inactive; negative”.

On to `BrCCBr`, for which the outcome was “active; positive”.

As to `Cc1ccccc1N`, the outcome was “active; negative”.

Consider `C=C(C#N)C(=O)OCC`, for which the outcome is “inactive; negative”.

Take `Nc1nc(=O)n([C@@H]2CS[C@H](CO)O2)cc1F`: the outcome is “active; positive”.

Consider `O=[N+]([O-])C(Br)=Cc1ccccc1`, for which the outcome is “active; positive”.

Regarding `CC(C)CON=O`, the outcome was “active; positive”.

With `N[C@@H](Cc1ccc(N(CCCl)CCCl)cc1)C(=O)O`, the outcome was “active; positive”.

As to `CC(=O)C(C)=O`, the outcome was “inactive; negative”.

Regarding `O=C(O)C=Cc1ccc(O)c(O)c1`, the outcome was “active; positive”.

Turning to `C=CC(=O)CC`, the outcome is “inactive; negative”.

As to `C=CC=C`, the outcome is “active; positive (nonstandard protocol)”.

Consider `CC(C)(C)O`, for which the outcome was “inactive; negative”.

For the molecule `Oc1ccccc1`, the outcome was “active; positive”.

Take `ClC(Cl)C(Cl)Cl`: the outcome is “active; positive”.

Turning to `CC/C(=C(/CC)c1ccc(O)cc1)c1ccc(O)cc1`, the outcome was “active; positive”.

In the case of `CN(C)CCC(c1ccc(Cl)cc1)c1ccccn1` (centres undefined), the outcome was “inactive; negative”.

Regarding `CC=Cc1ccc(O)c(OC)c1`, the outcome is “active; positive”.

In the case of `Nc1ccc(Cl)cc1`, the outcome was “active; positive”.

Take `CO[C@@]12[C@H](COC(N)=O)C3=C(C(=O)C(C)=C(N)C3=O)N1C[C@@H]1N[C@@H]12`: the outcome was “active; positive”.

Consider `O[C@@H]([C@H](O)[C@H](O)CBr)[C@H](O)CBr`, for which the outcome was “active; positive”.

With `Cc1ncc[nH]1`, the outcome is “active; positive”.

With `C=C(C)C#N`, the outcome was “inactive; negative”.

`Nc1nc(=S)c2[nH]cnc2[nH]1`: the outcome was “active; positive”.

On to `C=CC(=O)NCNC(=O)C=C`, for which the outcome is “active; positive”.

As for `Nc1ccccc1Cl`, the outcome is “active; negative”.

Turning to `O=C(O)CCCc1ccc(N(CCCl)CCCl)cc1`, the outcome is “active; positive”.

For the molecule `Nc1ncn([C@@H]2O[C@H](CO)[C@@H](O)[C@H]2O)c(=O)n1`, the outcome was “active; positive”.

Take `O=C(O)c1cc(N=Nc2ccc(S(=O)(=O)Nc3ccccn3)cc2)ccc1O`: the outcome was “active; positive”.

In the case of `Oc1c(Cl)c(Cl)c(Cl)c(Cl)c1Cl`, the outcome was “inactive; negative”.

`Nc1ccn([C@@H]2O[C@H](CO)[C@@H](O)[C@@H]2O)c(=O)n1`: the outcome is “active; positive”.

`Clc1ccc(N=Nc2ccc(Cl)c(Cl)c2)cc1Cl`: the outcome was “active; positive”.

As for `Nc1ccccc1`, the outcome is “active; positive”.

With `C(=NC1CCCCC1)=NC1CCCCC1`, the outcome is “active; weakly positive”.

For `CCCC=NO`, the outcome is “active; positive”.

On to `O=C(O)C(Cl)Cl`, for which the outcome was “active; positive”.

`CC(O)COC(C)(C)C` (centres undefined): the outcome is “active; weakly positive”.

In the case of `CN(C)c1ccc(C(=C2C=CC(=[N+](C)C)C=C2)c2ccccc2)cc1`, the outcome is “inactive; negative”.

For `C=C(C)c1ccccc1`, the outcome was “active; positive”.

Take `c12c3c4c5c1c1c6c7c2c2c8c3c3c9c4c4c%10c5c5c1c1c6c6c%11c7c2c2c7c8c3c3c8c9c4c4c9c%10c5c5c1c1c6c6c%11c2c2c7c3c3c8c4c4c9c5c1c1c6c2c3c41`: the outcome is “inactive; negative”.

Regarding `Nc1ccc(Cc2ccc(N)cc2)cc1`, the outcome was “active; positive (nonstandard protocol)”.

For the molecule `CC(CCl)OP(=O)(OC(C)CCl)OC(C)CCl` (centres undefined), the outcome was “active; positive”.

Turning to `OC(O)C(Cl)(Cl)Cl`, the outcome is “active; positive”.

Consider `CCOC(C)(C)C`, for which the outcome is “inactive; negative”.

Regarding `Cc1ccc([N+](=O)[O-])cc1`, the outcome was “inactive; negative”.

As for `CCCCCCc1ccc(O)cc1O`, the outcome is “active; positive”.

Turning to `C=CCc1cc(OC)c2c(c1)OCO2`, the outcome was “active; negative”.

In the case of `CCCCOCCO`, the outcome is “inactive; negative”.

Turning to `CC1C(=O)C[C@]2(C(C)C)C[C@H]12` (some centres undefined), the outcome was “active; positive”.

Regarding `CC[C@]1(O)C[C@H]2CN(CCc3c([nH]c4ccccc34)[C@@](C(=O)OC)(c3cc4c(cc3OC)N(C=O)[C@H]3[C@@](O)(C(=O)OC)[C@H](OC(C)=O)[C@]5(CC)C=CCN6CC[C@]43[C@@H]65)C2)C1`, the outcome is “active; positive”.

For `O=C1c2cccc(O)c2C(=O)c2c(O)cccc21`, the outcome is “inactive; negative”.

For the molecule `O=S(=O)([O-])[O-].[O]=[V+2]`, the outcome was “inactive; negative”.
